From patent US20130172387A1, “METHOD AND COMPOSITION FOR PROLONGING ANALGESIC EFFECT OF LOCAL ANESTHETIC” (priority 2011, published 2013)
Values joined by “and” are separate entries in the source; they are usually repeats but may differ in a detail not shown here. Identical values can stand only once.

Experiments:
subcutaneous tissue = conditions: rat, in vivo, sc
Protocol: Histology To determine the toxicity of the present composition to the subcutaneous tissue, skin was excised from the injected area of anesthetized rats two days later. The skin cross-section samples were fixed in 4% paraformaldehyde overnight and stained with hematoxylin and eosin.
Tissue inflammation was evaluated by the level of lymphocytic infiltrations in the cinnamaldehyde-injected subcutaneous layer of rats' cross-sectioned skin at 48 h.

skin = conditions: rat, in vivo, sc
Protocol: Neurobehavioral Examination Before the experiments were conducted, the animals were handled daily for up to 14 days to familiarize them with the behavioral investigator, the experimental environment, and the specific experimental protocols. A noxious pinprick test was used to measure the analgesic effect of the cutaneous trunci muscle reflex (CTMR), which is characterized by reflex movements of the skin over the back produced by twitches of the lateral thoracispinal muscles in response to local dorsal cutaneous stimulations. […] Three CTMR pinprick responses indicated a 50% of MPE, while 0% of observed MPE would show the presence of all six CTMR pinprick responses. The complete recovery time (CRT) is defined as the time period when the presence of all six pinprick responses returned with 0% of MPE. […] To determine skin irritation (such as necrosis, swelling and inflammation), assessment in any macroscopic changes of the skin color and texture was further studied. Systemic side effects such as sedation, agitation, and respiratory distress were also evaluated. The observer was not informed about the drugs used.

[1] = test system: cutaneous trunci muscle reflex (CTMR); assay: Noxious pinprick test of the cutaneous trunci muscle reflex after subcutaneous injection; type: in vivo; conditions: rat; for time of complete recovery (CRT): s.c. 0.6 ml, mean ± SE, n=8
Protocol: Subcutaneous Injection The animal experimental protocol was approved by the Animal Committee of Mackay Memorial Hospital in Taipei, Taiwan. Male Sprague-Dawley rats were purchased from BioLasco (Taipei, Taiwan) and kept in an air-conditioned animal shelter at room temperature of 22° C. to 24° C. with controlled level of humidity (40% to 50%) in a 12-hour light-dark cycle. […] The rats were randomly assigned to treatments with a size of 8 rats per group. All rats were briefly anesthetized by inhalation of 2% isoflurane (Abbott Laboratories, North Chicago, Ill.). The back of each rat was carefully shaved with a razor and was left with no injuries. After the induction of inhalation anesthesia, the drugs were injected subcutaneously in the thoracolumbar region. The injections caused a circular elevation of the skin, creating a wheal of approximately 2 cm in diameter. This wheal was marked within a minute after the injection.
Neurobehavioral Examination Before the experiments were conducted, the animals were handled daily for up to 14 days to familiarize them with the behavioral investigator, the experimental environment, and the specific experimental protocols. A noxious pinprick test was used to measure the analgesic effect of the cutaneous trunci muscle reflex (CTMR), which is characterized by reflex movements of the skin over the back produced by twitches of the lateral thoracispinal muscles in response to local dorsal cutaneous stimulations. The von Frey filament (26.0 g) was affixed to an 18-gauge needle to standardize the stimulus intensity and to test the neurobehavioral examination. Six pinpricks were applied in the marked areas every 15 minutes after each drug administration until the rats were fully recovered from the block. Six pinpricks per test were sufficient enough to obtain reproducible results in rats among different study groups, while avoiding injury of the skin during repeated testing. […] The total absence of CTMR response was defined as a complete blockade with 100% of maximum possible effect (MPE). Three CTMR pinprick responses indicated a 50% of MPE, while 0% of observed MPE would show the presence of all six CTMR pinprick responses. The complete recovery time (CRT) is defined as the time period when the presence of all six pinprick responses returned with 0% of MPE. All CTMR responses observed in rats were under stable vital signs. To determine skin irritation (such as necrosis, swelling and inflammation), assessment in any macroscopic changes of the skin color and texture was further studied. Systemic side effects such as sedation, agitation, and respiratory distress were also evaluated. The observer was not informed about the drugs used.
Statistical Analysis The statistical difference between the treatment groups was tested by using Mann-Whitney Rank Sum Test to evaluate the analgesic degree of MPE. Microcal Origin version 7 (Microcal Software, Northampton, Mass.) and SigmaStat (Systat Software, Inc., Chicago, Ill.) were used to calculate the values of MPE, creating figures and analyzing statistics. A p value of less than 0.05 was defined significant. All data are presented as mean±SE.

[2] = cinnamaldehyde 0.5% alone, or given 10 min before lidocaine 0.5% / bupivacaine 0.0625%
[3] = cinnamaldehyde 1% alone, or given 10 min before lidocaine 0.5% / bupivacaine 0.0625%
[4] = cinnamaldehyde 2% alone, or given 10 min before lidocaine 0.5% / bupivacaine 0.0625%

| Compound | lymphocytic infiltration (tissue inflammation) in subcutaneous layer (subcutaneous tissue) | skin irritation (skin) | time of complete recovery (CRT) [1, 2] | time of complete recovery (CRT) [1, 3] | time of complete recovery (CRT) [1, 4] | analgesic effect, dose dependence ([1]; s.c., cinnamaldehyde alone at 0.5%, 1% and 2%) | time of complete recovery (CRT) ([1]; cinnamaldehyde 0% (vehicle): lidocaine 0.5% or bupivacaine 0.0625% alone) | duration of complete nociceptive block ([1]; s.c., bupivacaine 0.0625% alone) | complete nociceptive block to pinpricks ([1]; s.c., cinnamaldehyde 0.5%, 1%, 2% followed 10 min later by bupivacaine 0.0625%) | duration of complete nociceptive block to pinpricks ([1]; s.c., 2% cinnamaldehyde followed 10 min later by 0.5% lidocaine) | analgesic effect, dose dependence ([1]; s.c., cinnamaldehyde 0.5%, 1%, 2% followed by 0.5% lidocaine) |
| --- | --- | --- | --- | --- | --- | --- | --- | --- | --- | --- | --- |
| O=CC=Cc1ccccc1 [Cinnamaldehyde, cinnamaldehyde] | More lymphocytic infiltrations | neither obvious change of skin color nor injury was observed | 43.13 ± 5.97 min and 43.13 min | 63.75 ± 4.70 min and 63.75 min | 95.63 ± 3.95 min and 95.63 min | dose-dependent analgesic effect |  |  |  |  |  |
| CCCCN1CCCCC1C(=O)Nc1c(C)cccc1C (centres unmarked) [Bupivacaine, 1-butyl-N-(2,6-dimethylphenyl)piperidine-2-carboxamide] |  |  | 78.75 min | 116.25 ± 4.70 min and 116.25 min | 159.38 ± 6.30 min and 159.38 min |  | 91.88 ± 4.43 min and 91.88 min | approximately 45 minutes | increased |  |  |
| CCN(CC)CC(=O)Nc1c(C)cccc1C [Lidocaine, 2-(diethylamino)-N-(2,6-dimethylphenyl)acetamide] |  |  | 65.63 ± 2.74 min and 65.63 min | 106.88 ± 3.40 min and 106.88 min | 157.50 ± 5.67 min and 157.50 min |  |  |  |  | about 15 minutes | Dose dependent analgesic effect |
